Measurements as given in patent publication US20120156333A1, “STABILIZED BETA CRYPTOXANTHIN-CONTAINING WATER AND THE USE THEREOF” (ARKRAY, INC., priority 2010, published 2012).
Where a name gives a salt, the structure may show the parent alone. Read-outs that look alike come from different tables or passages of the source.

Key:
[1] = for ln k: converted from log Kobs
Method: Specifically, a graph of FIG. 185 on page 95 of the publication was cited. FIG. 1 is an Arrhenius plot of degradation of thiamine hydrochloride in a vitamin complex liquid agent, the Y axis indicates log Kobs (day^−1), and the X axis indicates 1/T (K^1). The stable periods were calculated based on the activation energy for degradation of thiamine hydrochloride in the vitamin complex liquid agent, shown in the graph.
In FIG. 1, the Y axis is indicated by not ln, but log. Therefore log Kobs was converted into ln k.
Then, −Ea/R and ln A were calculated from the ln k and 1/T (K^−1) on the X axis of FIG. 1 based on the Arrhenius equation represented by the formula (1) below.

[2] = degradation in vitamin complex liquid agent, cited from earlier work

ln k ([1]; T 20.0 ° C.): −9.4406 | ln k ([1]; T 22.5 ° C.): −8.635 | ln k ([1]; T 29.1 ° C.): −7.829 | ln k ([1]; T 38.7 ° C.): −6.6775 | ln k ([1]; T 50.0 ° C.): −5.296 | ln k ([1]; T 57.6 ° C.): −4.0986 | ln k ([1]; T 67.7 ° C.): −2.993 | ln A ([1]; intercept b of Arrhenius equation from ln k and 1/T (K^−1)): 35.139 | −Ea/R ([1]; slope a of Arrhenius equation from ln k and 1/T (K^−1)): −13005
SMILES: Cc1ncc(C[n+]2csc(CCO)c2C)c(N)n1 [thiamine hydrochloride]
Kobs ([2]; T 20.0 ° C.): 0.000 day⁻¹ | log10k ([2]; T 20.0 ° C.): −4.100 | Kobs ([2]; T 22.5 ° C.): 0.000 day⁻¹ | log10k ([2]; T 22.5 ° C.): −3.750 | Kobs ([2]; T 29.1 ° C.): 0.000 day⁻¹ | log10k ([2]; T 29.1 ° C.): −3.400 | Kobs ([2]; T 38.7 ° C.): 0.001 day⁻¹ | log10k ([2]; T 38.7 ° C.): −2.900 | Kobs ([2]; T 50.0 ° C.): 0.005 day⁻¹ | log10k ([2]; T 50.0 ° C.): −2.300 | Kobs ([2]; T 57.6 ° C.): 0.017 day⁻¹ | log10k ([2]; T 57.6 ° C.): −1.780 | Kobs ([2]; T 67.7 ° C.): 0.050 day⁻¹ | log10k ([2]; T 67.7 ° C.): −1.300
